# Test results: publication PMC3527451, “A Pilot Randomized, Placebo Controlled, Double Blind Phase I Trial of the Novel SIRT1 Activator SRT2104 in Elderly Volunteers” (PLoS ONE, 2012)
# Entries after “also recorded” stand apart in the source; their conditions may differ.
# Columns and labels:
# [1] = system: elderly male and female volunteers; assay: MRI of subcutaneous and visceral adipose tissue; format: in vivo, human; conditions: active treatment relative to placebo
# Description: Magnetic Resonance Imaging (MRI) was also carried out on a clinical Siemens 3T Tim Trio (Siemens Healthcare, Erlangen, Germany). The torso was imaged using the 6-channel spine array and two 4-channel body array coils. The data were acquired using a 3D spoiled gradient echo sequence with partial Fourier acquisitions (VIBE). The imaging volume consisted of contiguous 3D slabs (voxel size of 1.4×1.4×5 mm3) acquired in a single 15 s end-expiration breath-hold (repetition time = 7 ms; echo times TEs = 2.45, 3.67 ms; flip angle = 10°; 450 mm field-of-view; GRAPPA factor 2). […] Fat-only images in the abdomen were manually segmented into intra-abdominal adipose tissue (IAT) and abdominal subcutaneous adipose tissue (SAT). The abdominal area was defined by using anatomical landmarks (top of the femoral heads to the bottom of the right lung). All images were anonymized and blinded to time point, but not to subject in order to facilitate matching anatomical landmarks, and sent to a third party (Vardis Group Inc, London), who derived the adipose tissue volumes using Slice-O-Matic (Tomovision, Montreal, Canada) software. Analysis of compartmental fat distribution was performed for subcutaneous adipose tissue (SAT), visceral adipose tissue (VAT), and the ratio of SAT:VAT, using an ANOVA model with treatment group as a factor.
# [2] = system: CYP2C19; conditions: human liver microsomes; cited from earlier work
# [3] = system: CYP1A; design: method as in ref 17, 18 (a number printed in a supplementary file, which may have a reference list of its own: not looked up in the article's list); conditions: cultured hepatocytes, at the concentrations tested; cited from earlier work
# [4] = system: SIRT3; conditions: SIRT1 activation over SIRT3; ref SRT2104 Investigator's Brochure; cited from earlier work
smiles,measurement,setting,value
Cc1nc(-c2cccnc2)sc1C(=O)Nc1ccccc1-c1cn2c(CN3CCOCC3)csc2n1 [SRT2104],subcutaneous (SAT) and visceral (VAT) adipose tissue volumes and VAT:SAT ratio,[1],No consistent changes from baseline
same,inhibition of CYP2C19,[2],not an inhibitor; also recorded: does not inhibit
same,induction of CYP1A,[3],not a significant inducer
same,fold selectivity as compared to SIRT3,[4],> 100
